Results taken from patent US20020137162A1, “Antisense oligonucleotide inhibition of specific histone deacetylase isoforms” (priority 2000, published 2002).
d = 2'-deoxy (DNA); m = 2'-O-methyl

What was measured:
human HDAC-6 = experiment: Antisense ODN screen, HDAC-6 RNA, T24 cells; format: cell-based; conditions: 100 nM, 24 hours, Northern blot
Protocol: Thirteen phosphorothloate ODNs containing sequences complementary to the 5′ or 3′ untranslated regions of the human HDAC-6 gene (GenBank Accession No. AJ011972) were screened as above. […] HDAC-6MM oligo was created as a control; compared to the antisense oligo, it contains a 7-base mismatch.
(§1) Briefly, human A549 and/or T24 human bladder carcinoma cells were seeded in 10 cm tissue culture dishes one day prior to oligonucleotide treatment. The cell lines were obtained from the American Type Culture Collection (ATCC) (Manassas, Va.) and were grown under the recommended culture conditions. Before the addition of the oligonucleotides, cells were washed with PBS (phosphate buffered saline). Next, lipofectin transfection reagent (GIBCO BRL Mississauga, Ontario, Calif.), at a concentration of 6.25 μg/ml, was added to serum free OPTIMEM medium (GIBCO BRL, Rockville, Md.), which was then added to the cells. The oligonucleotides to be screened were then added directly to the cells (i.e., one oligonucleotide per plate of cells). Mismatched oligonucleotides were used as controls. The same concentration of oligonucleotide (e.g., 50 nM) was used per plate of cells for each oligonucleotide tested.
(§2) Cells were harvested, and total RNAs were analyzed by Northern blot analysis. Briefly, total RNA was extracted using RNeasy miniprep columns (QIAGEN). […]

T24 [1] = experiment: Cell growth inhibition, trypan blue cell count; format: cell-based, human; conditions: T24 cancer cells, 50 nM, 72 hours
Protocol: (§3) In order to determine the effect of HDAC OSDNs on cell growth and cell death through apoptosis, A549 or T24 cells, MDAmb231 cells, and HMEC cells (ATCC, Manassas, Va.) were treated with HDAC OSDNs as previously described.
(§4) Cells were harvested and cell numbers counted by trypan blue exclusion using a hemocytometer. Percentage of inhibition was calculated as (100—AS cell numbers/control cell numbers) %.

HMEC [2] = experiment: Cell growth inhibition, trypan blue cell count; format: cell-based, human; conditions: HMEC normal cells, 50 nM, 72 hours
Protocol: as §3, §4

A549 [3] = experiment: Cell growth inhibition, trypan blue cell count; format: cell-based, human; conditions: A549 cancer cells, 50 nM, 72 hours
Protocol: as §3, §4

human cancer cells = experiment: Cell growth and apoptosis, summary for cancer cells; format: cell-based; conditions: Tables 3 and 4
Protocol: as §3
(§5) For the apoptosis study, cells were analyzed using the Cell Death Detection ELISA ^PLUSkit (Roche Diagnostic GmBH, Mannheim, Germany) according to the manufacturer's directions. Typically, 10,000 cells were plated in 96-well tissue culture dishes for 2 hours before harvest and lysis. Each sample was analyzed in duplicate. ELISA reading was done using a MR700 plate reader (DYNEX Technology, Ashford, Middlesex, England) at 410 nm. The reference was set at 490 nm.
as §4

A549 cells = experiment: Growth in soft agar, colony count; format: cell-based, human; conditions: colonies counted after three weeks
Protocol: 1.3 g granulated agar (DIDFCO) was added to 100 ml deionized water and boiled in a microwave to sterilize. The boiled agar was held at 55 C until further use. Iscove's Modified Dulbecco×s Medium (GIBCO/BRL), 100× Penicillin-Streptomycin-Glutamine (GIBCO/BRL) and fetal bovine serum (medicorp) were pre-warmed at 37 C. To 50 ml sterile tubes was added 9 ml Isove's medium, 2 ml fetal bovine serum and 0.2 ml 100× Pen-Strep-Gln. Then 9 ml 55 C 1.3% agar was added to each tube. The tube contents were mixed immediately, avoiding air bubbles, and 2.5 ml of the mixture was poured into each sterile 6 cm petri dish to form a polymerized bottom layer. Dishes with polymerized bottom layers were then put in a CO2 incubator at 37 C until further use. In 50 ml sterile tubes were prewarmed at 37 C for each 4 cell lines/samples, 20 ml Iscove's medium, 0.4 ml 100× Pen-Strep-Gln and 8 ml fetal bovine serum. Cells were trypsinized and counted by trypan blue staining and 20,000 cells were aliquotted into a sterile 15 ml tube. To the tube was then added DMEM with low glucose (GIBCO/BRL)+10% fetal bovine serum+Pen-Strep-Gln to a final volume of 1 ml. To the prewarmed 37 C mix in the 50 ml tube was quickly added 8 ml 55 C 1.3% agar, which was then mixed well. […] Plates were wrapped up in foil paper and incubated in a CO2 incubator at 37° C. for three weeks, at which time colonies in agar are counted.

HDAC-6 protein = experiment: Western blot of HDAC isotype protein expression in A549 cells, HDAC-6; format: cell-based, human; conditions: 50 nM, 48 hours
Protocol: OSDN treatment conditions were as previously described.
Cells were lysed in buffer containing 1% Triton X-100, 0.5% sodium deoxycholate, 5 mM EDTA, 25 mM Tris-HC1, pH 7.5, plus protease inhibitors. Total protein was quantified by the protein assay reagent from Bio-Rad (Hercules, Calif.). 100 ug of total protein was analyzed by SDS-PAGE. Next, total protein was transferred onto a PVDF membrane and probed with various HDAC-specific primary antibodies. Rabbit anti-HDAC-1 (H-51), anti-HDAC-2 (H-54) antibodies (Santa Cruz Biotechnologies, Santa Cruz, Calif.) were used at 1:500 dilution. Rabbit anti-HDAC-3 antibody (Sigma, St. Louis, Mo.) was used at a dilution of 1:1000. Anti-HDAC-4 antibody was prepared as previously described (Wang, S. H. et al., (1999) Mol. Cell. Biol. 19:7816-27), and was used at a dilution of 1:1000. Anti-HDAC-6 antibody was raised by immunizing rabbits with a GST fusion protein containing a fragment of HDAC-6 protein (amino acid #990 to #1216, GenBank Accession No. AAD29048). Rabbit antiserum was tested and found only to react specifically to the human HDAC-6 isoform. HDAC-6 antiserum was used at 1:500 dilution in Western blots to detect HDAC-6 in total cell lysates. Horse Radish Peroxidase conjugated secondary antibody was used at a dilution of 1:5000 to detect primary antibody binding. […]

T24 [4] = experiment: Apoptosis, Cell Death Detection ELISA; format: cell-based, human; conditions: fold over non-specific background, TSA at 100 ng/ml
Protocol: as §3, §5

MDAmb231 [5] = experiment: Apoptosis, Cell Death Detection ELISA; format: cell-based, human; conditions: fold over non-specific background, TSA at 100 ng/ml
Protocol: as §3, §5

HMEC [6] = experiment: Apoptosis, Cell Death Detection ELISA; format: cell-based, human; conditions: fold over non-specific background, TSA at 100 ng/ml
Protocol: as §3, §5

A549 [7] = experiment: Apoptosis, Cell Death Detection ELISA; format: cell-based, human; conditions: fold over non-specific background, TSA at 100 ng/ml
Protocol: as §3, §5

human HDAC-4 = experiment: Antisense ODN screen, HDAC-4 RNA, T24 cells; format: cell-based; conditions: 100 nM, 24 hours, Northern blot
Protocol: Seventeen phosphorothioate ODNs containing sequences complementary to the 5′ or 3′ UTR of the human HDAC-4 gene (GenBank Accession No. AB006626) were screened as above. […] HDAC-4 MM1 and MM2 oligonucleotides were created as controls; compared to the antisense oligonucleotides, they each contain a 6-base mismatch.
as §1, §2

p21 protein = experiment: Western blot of p21 protein in A549 cells; format: cell-based, human
Protocol: Experiments were also conducted to examine the affect of HDAC antisense oligonucleotides on HDAC protein expression. In A549 cells, treatment with HDAC-4 antisene oligonucleotides results in a dramatic increase in the level of p21 protein (FIG. 15).

MDAmb231 [8] = experiment: Cell growth inhibition, trypan blue cell count; format: cell-based, human; conditions: MDAmb231 cancer cells, 50 nM, 72 hours
Protocol: as §3, §4

Row | Substance | antisense activity to human HDAC-6 (human HDAC-6) | Growth Inhibition (AS vs. MM) (T24 [1]) | Growth Inhibition (AS vs. MM) (HMEC [2]) | Growth Inhibition (AS vs. MM) (A549 [3]) | growth arrest and apoptosis of human cancer cells (human cancer cells) | growth of A549 cells in soft agar (A549 cells) | HDAC-6 protein expression (HDAC-6 protein) | Apoptosis After 48 Hour Treatment (T24 [4]) | Apoptosis After 48 Hour Treatment (MDAmb231 [5]) | Apoptosis After 48 Hour Treatment (HMEC [6]) | Apoptosis After 48 Hour Treatment (A549 [7]) | antisense activity to human HDAC-4 (human HDAC-4) | level of p21 protein (p21 protein) | Growth Inhibition (AS vs. MM) (MDAmb231 [8])
1 | 5′-CAGGCTGGAATGAGCTACAG-3′ (chemistry not given here) [HDAC-6 AS] | antisense activity | − (“−”: no inhibition) | − (“−”: no inhibition) | − (“−”: no inhibition) | no effect | do not | specifically inhibits | − (“−”: <= 2x fold over non-specific background) | − (“−”: <= 2x fold over non-specific background) | − (“−”: <= 2x fold over non-specific background) | − (“−”: <= 2x fold over non-specific background) | – | – | –
2 | 5-GCTGCCTGCCGTGCCCACCC-3′ (sugars from the 5' end m4 d12 m4, all phosphorothioate, methylation of C and T or U not given here) [HDAC-4 AS1] | – | ++ (“++”: 50-75% inhibition) | – | +++ (“+++”: >75% inhibition) | – | – | – | + (“+”: 2-3X fold) | ++ (“++”: 3-5X fold) | − (“−”: <= 2x fold over non-specific background) | +++ (“+++”: 5-8X fold) | antisense activity | induces the expression | ++ (“++”: 50-75% inhibition)
